Biological target: Recombinant human cathepsin A (Homo sapiens (Human), UniProt P10619)
Experiment: Cathepsin A inhibitory activity (cleavage of Bodipy FL-labeled bradykinin, microfluidic capillary electrophoresis)
Type: biochemical
Details: read-out: Activity (Cathepsin A inhibitory activity, IC50)

Recombinant human cathepsin A, sequence (P10619 29-326): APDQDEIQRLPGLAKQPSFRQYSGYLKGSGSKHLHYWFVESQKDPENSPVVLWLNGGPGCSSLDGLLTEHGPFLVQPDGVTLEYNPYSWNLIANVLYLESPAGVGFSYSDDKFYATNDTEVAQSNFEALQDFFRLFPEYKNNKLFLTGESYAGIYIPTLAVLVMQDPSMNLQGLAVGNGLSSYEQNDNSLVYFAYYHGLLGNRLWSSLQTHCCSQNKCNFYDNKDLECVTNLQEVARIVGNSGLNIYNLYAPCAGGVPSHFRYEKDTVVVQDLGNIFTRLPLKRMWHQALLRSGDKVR
Recombinant human cathepsin A, sequence (P10619 327-480): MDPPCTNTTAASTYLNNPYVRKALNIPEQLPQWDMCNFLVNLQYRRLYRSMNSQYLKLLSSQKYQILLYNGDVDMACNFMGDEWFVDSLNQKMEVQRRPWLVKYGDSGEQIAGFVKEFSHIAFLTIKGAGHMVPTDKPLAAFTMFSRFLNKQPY

IC50	SMILES
1.66 µM	O=C(O)C[C@H](NC(=O)c1cccc(-c2ccccc2Cl)n1)c1ccccc1C(F)(F)F [compound 612]

Same assay, conditions: read-out: Activity (IC50, cathepsin A inhibition)

SMILES	IC50
O=C(O)CC(NC(=O)c1cccc(Br)n1)c1ccccc1Cl (stereo not drawn) [compound 562]	2.1 µM
O=C(O)C[C@@H](Cc1ccccc1)NC(=O)c1cccc(-c2ccccc2F)n1 [compound 561]	5.33 µM

Further lines, results first:

IC50	SMILES
14 µM	CC(C)Cc1cc(C(=O)NC(CC(=O)O)c2ccccc2Cl)nc(N)n1 (stereo not drawn) [compound 557]
1.6 µM	O=C(O)CC(NC(=O)c1cccc(Cl)n1)c1ccccc1Cl (stereo not drawn) [compound 540]
3.09 µM	O=C(O)CC(NC(=O)c1cccc(-c2ccccc2)n1)c1ccccc1Cl (stereo not drawn) [compound 563]

Same assay, conditions: read-out: Activity (IC50, cathepsin A inhibitory activity)

SMILES	IC50
COc1ccc(C(=O)N[C@@H](CC(=O)O)c2ccc(C)cc2)nc1-c1ccc(C)c(F)c1 [compound 223]	1.29 µM
COc1ccc(C(=O)N[C@@H](CC(=O)O)c2ccccc2Cl)nc1-c1cc(C)cc(Cl)c1 [compound 483]	9.49 µM
COc1ncc(C(=O)N[C@@H](CC(=O)O)c2ccccc2C)cc1-c1ccc(C#N)cc1 [compound 421]	10.4 µM
Cc1ccccc1[C@H](CC(=O)O)NC(=O)c1cncc(-c2ccccc2C(F)(F)F)c1 [compound 66]	4.29 µM
Cc1ccccc1[C@H](CC(=O)O)NC(=O)c1cncc(-c2ccccc2F)c1 [compound 69]	1.4 µM
COc1ncc(C(=O)N[C@@H](CC(=O)O)c2ccccc2Cl)cc1-c1ccc(F)cc1C [compound 404]	7.14 µM
COc1ccc(C(=O)N[C@@H](CC(=O)O)c2ccc(C)cc2)nc1-c1cc(C(F)(F)F)ccc1F [compound 236]	3.57 µM
COc1ccccc1-c1cc(C(=O)N[C@@H](CC(=O)O)c2ccccc2C)cnc1OC [compound 416]	3.42 µM
COc1ccc(C(=O)N[C@@H](CC(=O)O)c2ccccc2Cl)nc1-c1ccc(F)nc1 [compound 453]	6.49 µM
COc1ccc(Cl)cc1-c1nc(C(=O)N[C@@H](CC(=O)O)c2ccc(C)cc2)ccc1OC [compound 233]	2.24 µM
COc1ncc(C(=O)N[C@@H](CC(=O)O)c2ccccc2C)cc1-c1cccc(C)c1 [compound 417]	4.86 µM

Continued, values first:

IC50	SMILES
4.13 µM	COc1ccc(C(=O)N[C@@H](CC(=O)O)c2ccccc2F)nc1-c1ccc(F)c(C)c1 [compound 292]
5.18 µM	COc1ccc(C(=O)N[C@@H](CC(=O)O)c2ccccc2F)nc1-c1ccc(C)cc1 [compound 260]
5.38 µM	COc1ncc(C(=O)N[C@@H](CC(=O)O)c2ccccc2C)cc1-c1ccc(C)cc1 [compound 410]
2.16 µM	Cc1ccccc1[C@H](CC(=O)O)NC(=O)c1cncc(-c2ccccc2)c1 [compound 15]
> 10 µM	COc1ccc(C(C)(C)C)cc1-c1nc(C(=O)N[C@@H](CC(=O)O)c2ccccc2Cl)ccc1OC [compound 475]
1.16 µM	COc1ccc(F)c(-c2nc(C(=O)N[C@@H](CC(=O)O)c3ccc(C)cc3)ccc2OC)c1 [compound 239]

Same assay, conditions: read-out: Activity [μM] (IC50, cathepsin A inhibitory activity)

SMILES	IC50
Cc1ccccc1[C@H](CC(=O)O)NC(=O)c1cccc(-c2cccc(-c3ccccc3)c2)n1 [compound 147]	3.16 µM
Cc1ccccc1[C@H](CC(=O)O)NC(=O)c1cccc(-c2ccccc2C#N)n1 [compound 157]	2.46 µM
COc1ccc(C(=O)N[C@@H](CC(=O)O)c2ccc(C)cc2)nc1-c1ccc(C(C)=O)s1 [compound 210]	7.52 µM
COc1ccc(C(=O)N[C@@H](CC(=O)O)c2ccccc2F)nc1-c1ccnc(N2CCOCC2)c1 [compound 321]	> 10 µM
COc1ccc(C(=O)N[C@@H](CC(=O)O)c2ccccc2C)nc1-c1ccc(C)o1 [compound 376]	6.1 µM
COc1ccccc1-c1cc(C(=O)N[C@@H](CC(=O)O)c2ccccc2Cl)cnc1OC [compound 394]	3.76 µM
COc1ncc(C(=O)N[C@@H](CC(=O)O)c2ccccc2Cl)cc1-c1cccc(Cl)c1 [compound 392, (S)-3-(2-Chloro-phenyl)-3-{[5-(3-choro-phenyl)-6-methoxy-pyridine-3-carbonyl]-amino}-propionic acid]	10.3 µM
COc1ccc(C(=O)N[C@@H](CC(=O)O)c2ccccc2C)nc1-c1cc(F)cc(F)c1 [compound 362]	1.43 µM

The next lines start with the values.

IC50	SMILES
1.58 µM	COc1ccc(C(=O)N[C@@H](CC(=O)O)c2ccccc2C)nc1-c1ccc(C)c(F)c1 [compound 370]
1.18 µM	Cc1ccccc1[C@H](CC(=O)O)NC(=O)c1cccc(-c2ccc(F)c(F)c2)n1 [compound 151]
